Counter-ions that a name gives are not always drawn.

Experiment [1] concerns secretion of gastric acid. The experiment in a line: Inhibition of secretion of gastric acid. The conditions noted are these: rat, oral; for ED (0.75 pH units): 1 h, dose increasing gastric mucosal surface pH by 0.75 pH units, read-out: Acid secretion-inhibiting effect ED 0.75; for Gastric acid secretion-inhibiting dose relative to verapamil: fraction of the dose required of verapamil. Type of experiment: in vivo, Sprague-Dawley rat (female). The procedure: Inhibition of the secretion of gastric acid is evident from an increase in the pH of the surface of the gastric mucous membrane. For this measurement, groups of from 5 to 10 female Sprague-Dawley rats weighing 160-190 g, which had remained without food for 48 hours (water ad libitum), were pretreated with different doses of the test substances, administered orally. […] The dose which produces an increase in the pH by 0.75 pH units is determined as the ED 0.75, from the linear regression of log dose and the increase in the pH.

In experiment [2] the test system is ulcerous lesions on the mucous membrane. The experiment in a line: Antiulcerous action (reserpine/indomethacin-induced gastric ulceration). The class given is in vivo, Sprague-Dawley rat (female). The conditions noted are these: rat, oral; for ED50: dose reducing ulcerous area by 50%, read-out: Antiulcerous effect ED 50%. The procedure: To investigate the antiulcerous action, groups of 10 female Sprague-Dawley rats weighing 160-180 g received 1 mg/kg of reserpine, administered intraperitoneally, and thereafter remained without food for 18 hours (water ad libitum). […] Thereafter, they were kept for 6 hours at 8° C. and then sacrificed. The stomach was removed and the area of the ulcerous lesions on the mucous membrane was determined.

The subject of experiment [3] is lesions of the gastric mucous membrane. The experiment in a line: Cytoprotective action (ethanol-induced gastric lesions). The conditions noted are these: rat, oral; for ED50: dose reducing lesions by 50%, read-out: Cytoprotective effect ED 50%. The class given is in vivo, Sprague-Dawley rat (female). The procedure:
The cytoprotective action was determined on groups of 8 female Sprague-Dawley rats weighing 160-190 g, the rats having received no food for 48 hours (water ad libitum) and having been pretreated with different doses of the test substances, administered orally. 1 hour later, 10 ml/kg of 100% ethanol were administered orally to the animals. After a further hour, the animals were sacrificed by inhalation of CO2, the stomach was removed and the intensity of the lesions was assessed on the basis of the following scheme:
0=unchanged mucous membrane
1=a few areas of reddening which are narrow, elongated or small
2=reddening over broad, elongated or large interrupted areas
3=pronounced reddening which colors virtually the entire mucous membrane of the glandular stomach.

The test system of experiment [4] is Acetylcholine-induced bronchospasm. The experiment in a line: Broncholytic action, acetylcholine-induced bronchospasm. The class given is in vivo. The following applies: guinea pig, intravenous; for ED75: Cavia porcellus, 75% reduction in bronchospasms, read-out: ED 75% acetylcholine-induced bronchospasm; for Broncholytic activity compared with verapamil, acetylcholine-induced (in words): text does not separate the inducers. The text has this:
(§1) The animals were artificially ventilated using a Starling pump.

Experiment [5] concerns Histamine-induced bronchospasm. The experiment in a line: Broncholytic action, histamine-induced bronchospasm. Type of experiment: in vivo. The conditions noted are these: guinea pig, intravenous; for ED75: Cavia porcellus, 75% reduction in bronchospasms, read-out: ED 75% histamine-induced bronchospasm; for Broncholytic activity compared with verapamil, histamine-induced (in words): text does not separate the inducers.
Excerpt: as §1

The subject of experiment [6] is isolated spiral strips of aorta. Nature of the experiment: Calcium-antagonistic action in isolated spiral strips of aorta. Further details: species or system Sprague-Dawley rat. The following applies: in vitro; for EC50: Rattus norvegicus, 50% inhibition of the effect of 0.5 mM Ca++, K-depolarized strips, read-out: Ca-antagonistic action EC 50%; for Ca-antagonistic activity compared with verapamil (in words): rat aorta strips. As to the method:
The Ca-antagonistic action was tested on spiral strips of aorta of male and female Sprague-Dawley rats weighing from 200 to 300 g.
The animals were sacrificed with ether, and the thorax and thoracic aorta were removed. A maximum of 6 spiral strips about 2 mm wide and 2 cm long were used per animal.
The strips of aorta were suspended in a modified tyrode solution at 37° C. and subjected to an initial tension with a load of 1.5 g and, after a relaxation time of about 1 hour, Ca was removed by keeping them for 5 minutes in Ca-free tyrode solution with the addition of 0.2 mM of Na EDTA.
The Ca-free strips of vessel were depolarized with K-rich tyrode solution for 10 minutes. Contraction was induced by a CaCl2 concentration of 0.5 mM. After 15 minutes, Ca was again removed from the strips of vessel by means of a Ca-free tyrode solution containing 0.2 mM of Na EDTA.
Depolarization was then effected again for 10 minutes with K-rich tyrode solution, after which 0.05 ml of the test substance was added. After the test substance had been allowed to act for 15 minutes, CaCl2 was again added in a concentration of 0.5 mM in order to check whether the test substance has a Ca-antagonistic action. Inhibition of the effect of 0.5 mM Ca^++ by the antagonistic substance is stated as a percentage.

The subject of a further experiment is blood pressure. Nature of the experiment: Hypotensive action in anesthetized rats. Type of experiment: in vivo, Sprague-Dawley rat. The following applies: anesthetized rat; for Reduction in blood pressure, i.v., R.A.: verapamil = 1.0; for ED20: iv, 20% decrease in blood pressure, read-out: Reduction in blood pressure ED 20% i.v. The procedure:
The blood pressure was measured in the carotid artery. The substances were administered intravenously into the jugular vein. The dose which produces a 20% decrease in blood pressure was calculated as the ED 20%, from the linear regression of log dose (mg/kg) and relative decrease in blood pressure (Δ%).

Another experiment has as its system systolic blood pressure. Nature of the experiment: Antihypertensive action in spontaneously hypertensive rats. The class given is in vivo, spontaneously hypertensive male Okamoto rat. The conditions noted are these: for Reduction in blood pressure, p.o., R.A. / ED20: SH rat, p.o.; for Reduction in blood pressure, p.o., R.A.: verapamil = 1.00; for ED20: po, 2 hours after administration, 20% reduction in systolic pressure, read-out: Reduction in blood pressure ED 20% p.o. The procedure: To determine the antihypertensive action, the substances were administered orally to spontaneously hypertensive male Okamoto rats (4-8 animals/dose, weight 270-360 g). The systolic blood pressure was measured noninvasively on the rat's tail with the aid of piezoelectric transducers, before and 2 hours after administration. The dose which reduces the systolic pressure by 20%, relative to the values for untreated control animals, was determined as the ED 20%.

`CC(C)[C@@](C=O)(CCCN(C)CCc1ccccc1)c1ccccc1` [Example 2, (S)-2-[3-[(Phenylethyl)-methylamino]-propyl]-2-isopropylphenylacetaldehyde hydrochloride]: in experiment [1], the ED (0.75 pH units) came to 2 mg/kg and the “Gastric acid secretion-inhibiting dose relative to verapamil” value is “one-fifth”. Besides, the ED50 in experiment [2] turned out to be 12.2 mg/kg. Moreover, the ED50 in experiment [3] was 9.4 mg/kg.
With `CC(C)[C@](C=O)(CCCN(C)CCc1ccccc1)c1ccccc1` [Example 3, (R)-2-[3-[(Phenylethyl)-methylamino]-propyl]-2-isopropylphenylacetaldehyde hydrochloride], in experiment [1], the ED (0.75 pH units) was 2.1 mg/kg and the “Gastric acid secretion-inhibiting dose relative to verapamil” value is reported as “one-fifth”. Moreover, the ED50 in experiment [2] stood at 3.8 mg/kg. In addition, the ED50 in experiment [3] stood at 8.3 mg/kg.
In the case of `COc1cccc(CCN(C)CCCC(C=O)(c2ccc(OC)c(OC)c2)C(C)C)c1` (stereo not drawn) [Example 6, 2-[3-[(3-Methoxyphenylethyl)-methylamino]-propyl]-2-isopropyl-3,4-dimethoxyphenylacetaldehyde], in experiment [4], the ED75 came out at 0.39 mg/kg and the “Broncholytic activity compared with verapamil, acetylcholine-induced (in words)” value is “substantially higher activity”. Besides, in experiment [5], the ED75 worked out at 0.59 mg/kg and the “Broncholytic activity compared with verapamil, histamine-induced (in words)” value is “substantially higher activity”.
`COc1cccc(CCN(C)CCCC(C=O)(c2cccc(OC)c2)C(C)C)c1` (stereo not drawn) [Example 7, 2-[3-[(3-Methoxyphenylethyl)-methylamino]-propyl]-2-isopropyl-3-methoxyphenylacetaldehyde]: in experiment [4], the ED75 is 0.67 mg/kg and the “Broncholytic activity compared with verapamil, acetylcholine-induced (in words)” value is listed as “substantially higher activity”. Besides, the EC50 in experiment [6] worked out at 22 nM. Also, in experiment [5], the ED75 is 0.61 mg/kg and the “Broncholytic activity compared with verapamil, histamine-induced (in words)” value is listed as “substantially higher activity”.
Consider `COc1ccc(CCN(C)CCCC(C=O)(c2ccc(OC)c(OC)c2)C(C)C)cc1OC` (stereo not drawn) [Example 8, 2-[3-[(3,4-Dimethoxyphenylethyl)-methylamino]-propyl]-2-isopropyl-3,4-dimethoxyphenylacetaldehyde], for which, in experiment [4], the ED75 is 0.23 mg/kg and the “Broncholytic activity compared with verapamil, acetylcholine-induced (in words)” value is reported as “substantially higher activity”. In addition, in experiment [5], the ED75 is 0.38 mg/kg and the “Broncholytic activity compared with verapamil, histamine-induced (in words)” value is “substantially higher activity”.
In the case of `COc1cccc(CCN(C)CCCC(C=O)(c2cc(OC)c(OC)c(OC)c2)C(C)C)c1` (stereo not drawn) [Example 9, 2-[3-[(3-Methoxyphenylethyl)-methylamino]-propyl]-2-isopropyl-3,4,5-trimethoxyphenylacetaldehyde hydrogen oxalate], in experiment [6], the EC50 amounted to 1.2 nM and the “Ca-antagonistic activity compared with verapamil (in words)” value is listed as “substantially higher activity”.
Turning to `COc1ccc(CCN(C)CCCC(C=O)(c2cc(OC)c(OC)c(OC)c2)C(C)C)cc1OC` (stereo not drawn) [Example 10, 2-[3-[3,4-Dimethoxyphenylethyl)-methylamino]-propyl]-2-isopropyl-3,4,5-trimethoxyphenylacetaldehyde hydrogen oxalate], in experiment [6], the EC50 was 19 nM and the “Ca-antagonistic activity compared with verapamil (in words)” value is “substantially higher activity”.
Regarding `COc1cc(CCN(C)CCCC(C=O)(c2cc(OC)cc(OC)c2)C(C)C)cc(OC)c1` (stereo not drawn) [Example 11, 2-[3-[(3,5-Dimethoxyphenylethyl)-methylamino]-propyl]-2-isopropyl-3,5-dimethoxyphenylacetaldehyde hydrogen oxalate], in experiment [6], the EC50 worked out at 12 nM and the “Ca-antagonistic activity compared with verapamil (in words)” value is “substantially higher activity”.
Regarding `CCOc1cc(CCN(C)CCCC(C=O)(c2cc(OCC)cc(OCC)c2)C(C)C)cc(OCC)c1` (stereo not drawn) [Example 12, 2-[3-[(3,5-Diethoxyphenylethyl)-methylamino]-propyl]1-2-isopropyl-3,5-diethoxyphenylacetaldehyde hydrogen oxalate], in experiment [4], the ED75 was 0.27 mg/kg and the “Broncholytic activity compared with verapamil, acetylcholine-induced (in words)” value is on record as “substantially higher activity”. The EC50 in experiment [6] came to 32 nM. Further, the “Reduction in blood pressure, i.v., R.A.” value in the experiment with blood pressure came to 1.13. Besides, in the experiment with blood pressure (i.v.), the “Reduction of blood pressure compared with verapamil (in words)” value is reported as “reduces the blood pressure to a somewhat greater extent than verapamil” and the ED20 turned out to be 0.3 mg/kg. Also, in the experiment on systolic blood pressure, the “Reduction in blood pressure, p.o., R.A.” value worked out at 6.25 and the ED20 turned out to be 4 mg/kg. The “Blood pressure reducing dose, times smaller compared with verapamil” value in the experiment with systolic blood pressure (conscious spontaneously hypertensive rats, oral) is 6.3 times. In experiment [5], the ED75 amounted to 0.65 mg/kg and the “Broncholytic activity compared with verapamil, histamine-induced (in words)” value is “substantially higher activity”.
In the case of `COc1ccc(CCN(C)CCCC(C#N)(c2ccc(OC)c(OC)c2)C(C)C)cc1OC` (stereo not drawn) [Verapamil, verapamil, reference compound], the results for the ED75 in experiment [4] and in experiment [5] were 0.56 mg/kg and 1.3 mg/kg, respectively. Further, in experiment [1], the ED (0.75 pH units) is 10.5 mg/kg. For the same compound, in experiment [6], the EC50 amounted to 35 nM. Further, the “Reduction in blood pressure, i.v., R.A.” value in the experiment with blood pressure turned out to be 1.0. The ED20 with blood pressure (i.v.) was found to be 0.34 mg/kg; with systolic blood pressure, 25 mg/kg. Further, the “Antiulcerous effect ED 50% (no effect)” value in experiment [2] is “(2)”. The “Reduction in blood pressure, p.o., R.A.” value in the experiment with systolic blood pressure was 1.00. Further, the “Cytoprotective effect ED 50% (no effect)” value in experiment [3] is listed as “(2)”.
